Laboratory results taken from publication PMC11562704, “Volatiles extracted from Melaleuca Rugulosa (Link) Craven leaves: comparative profiling, bioactivity screening, and metabolomic analysis” (BMC Complementary Medicine and Therapies, 2024).
In brackets after ≈: the same amount, converted by molar mass.

Molecular target: T1, Type 1 collagenase enzyme
T1 construct: gene colG; native collagenase preparation isolated from the bacterium; type 1 is normally a mixture of ColG and ColH
Experiment: FALGPA hydrolysis, ninhydrin absorbance at […] nm
Format: biochemical, Hathewaya histolytica
Conditions: FALGPA substrate; 50 mM tricine pH 7.4; 37 °C; 20 min preincubation

## O=C(O)CN(CCN(CC(=O)O)CC(=O)O)CC(=O)O [EDTA]
  IC50 ± SD (inhibition percentage (IP) ± SD) / Anti-collagenase: 315.12 ± 2.21 µg/mL (≈ 1080 µM)
